From patent publication US7282522B2, “Hydroxamic acid derivatives and the method for preparing thereof” (Amorepacific Corporation, priority 2003, dated 2007)

What was measured:
RARα = target: T1, RARα (Homo sapiens, UniProt P10276); assay: RARE-luciferase reporter assay in transfected CV-1 cells (affinity to retinoic acid receptor), RARα; type: cell-based; details: treated 24 hours at final concentration 10^−4M, control group 1000
T1 construct: expressed in transfected cells; host or cells: CV-1 cells (ATCC)
T1 sequence (P10276 1-462): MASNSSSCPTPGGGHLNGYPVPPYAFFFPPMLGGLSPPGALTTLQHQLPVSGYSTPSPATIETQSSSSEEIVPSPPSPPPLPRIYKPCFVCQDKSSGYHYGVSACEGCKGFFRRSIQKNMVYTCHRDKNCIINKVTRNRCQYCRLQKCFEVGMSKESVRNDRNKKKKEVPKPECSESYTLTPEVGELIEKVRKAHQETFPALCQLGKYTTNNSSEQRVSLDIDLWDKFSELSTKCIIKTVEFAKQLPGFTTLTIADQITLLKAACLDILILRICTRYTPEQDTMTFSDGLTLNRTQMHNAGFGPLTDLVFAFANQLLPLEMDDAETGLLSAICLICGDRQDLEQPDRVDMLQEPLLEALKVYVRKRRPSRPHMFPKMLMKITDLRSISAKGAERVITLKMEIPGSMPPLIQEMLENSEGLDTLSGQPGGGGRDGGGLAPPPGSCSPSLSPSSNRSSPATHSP
Text: This example illustrates affinities of hydroxamic acid derivatives obtained in Examples 1 to 55 to retinoic acid receptor, in comparison with retinol and retinoic acid.
(§1) Receptor-expression plasmid, pECE-RARα and pECE-RARγ were engineered by the prior method (Mol. Cell. Biol. 1996, 16, 1138-1149). RARE-tk-Luc, i.e. RARE reporter was obtained by inserting RARE fragment from b-RARE-tk-CAT into pGL3 luciferase basic vector. CV-1 cells were obtained from ATCC (American Type Culture Collection).
CV-1 cells were seeded into 96-well microtiter plate at 5,000 cells per well and cultured in DMEM (Dulbecco's Modified Eagle's Media) supplemented with 2.5% fetal bovine serum. 24 Hours later, the cells were transfected with 10 ng of pECE-RARα, long of pECE-RARγ, 100 ng of reporter plasmid and 100 ng of β-galactosidase-expression vector, using LipofectaminPlus (GIBCO BRL, grand island, N.Y.). 24 Hours post-transfection, the cells were treated for 24 hours with hydroxamic acid derivatives of Examples 1˜55 or retinol at a final concentration of 10^−4M or with retinoic acid at a final concentration of 10^−5M, which is 10 times lower concentration than those of the former.

RARγ = target: T2, RARγ (Homo sapiens, UniProt P13631); assay: RARE-luciferase reporter assay in transfected CV-1 cells (affinity to retinoic acid receptor), RARγ; type: cell-based; details: treated 24 hours at final concentration 10^−4M, control group 5000
T2 construct: expressed in transfected cells; host or cells: CV-1 cells (ATCC)
T2 sequence (P13631 1-454): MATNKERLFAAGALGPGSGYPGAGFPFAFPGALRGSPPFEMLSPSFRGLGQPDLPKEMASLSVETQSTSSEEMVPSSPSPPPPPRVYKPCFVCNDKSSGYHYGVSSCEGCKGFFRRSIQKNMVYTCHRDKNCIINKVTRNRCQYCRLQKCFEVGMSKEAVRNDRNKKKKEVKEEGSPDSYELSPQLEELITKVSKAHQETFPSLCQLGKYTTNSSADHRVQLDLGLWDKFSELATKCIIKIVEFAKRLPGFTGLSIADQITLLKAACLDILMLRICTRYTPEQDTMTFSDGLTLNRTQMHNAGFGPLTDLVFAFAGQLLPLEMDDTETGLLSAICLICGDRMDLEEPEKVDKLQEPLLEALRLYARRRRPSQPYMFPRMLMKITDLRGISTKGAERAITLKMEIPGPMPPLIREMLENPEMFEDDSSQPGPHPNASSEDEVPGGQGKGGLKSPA
Procedure: as §1
CV-1 cells were seeded into 96-well microtiter plate at 5,000 cells per well and cultured in DMEM (Dulbecco's Modified Eagle's Media) supplemented with 2.5% fetal bovine serum. 24 Hours later, the cells were transfected with 10 ng of pECE-RARα, long of pECE-RARγ, 100 ng of reporter plasmid and 100 ng of β-galactosidase-expression vector, using LipofectaminPlus (GIBCO BRL, grand island, N.Y.).

procollagen type I = assay: Effect on collagen biosynthesis (procollagen type I ELISA) in human fibroblasts; type: cell-based; details: 10^−4M, 24 hours, serum-free medium, relative to control group = 100
Procedure: Human fibroblasts were seeded into 24-well plate at 1×10^5 cells per well and then cultured to 90% of growth.
For each supernatant, procollagen production was measured with procollagen type I ELISA kit.

collagenase = assay: Inhibition of collagenase expression in human fibroblasts (ELISA kit); type: cell-based; details: 10^−4M, 24 hours, serum-free medium, relative to control group = 100
Procedure: Human fibroblasts were seeded into 96-well microtiter plate at 5,000 cells per well and then cultured to 90% of growth in DMEM (Dulbecco's Modified Eagle's Media) supplemented with 2.5% fetal bovine serum. Then, the fibroblastes were cultured in serum-free DMEM for 24 hours and treated for 24 hours with 10^−4M of hydroxamic acid derivatives of Examples 1˜55, retinol or retinoic acid in serum-free medium, and then the culture fluid was collected.
(§2) For each culture fluid, collagenase production was measured with collagenase kit (commercialized by AmershamPharmacia Biotech). Firstly, the culture fluid was added to 96-well plate spread with primary collagenase antibody and then antigen-antibody reaction was performed in an incubator for 3 hours. Later, chromophore-conjugated secondary antibody was added to the 96-well plate and then reacted for 15 minutes. Then, color former was added thereto, to induce development at room temperature for 15 minutes. 1M of sulfuric acid was added to stop the reaction. […] The color density depends on the progress of the reaction. The absorbance of the yellow 96-well plate was measured at 405 nm using absorptiometer. Collagenase expression was calculated by the following equation 1. Herein, the absorbance of the culture fluid collected from the medium with no material treated was used as a control. Collagenase expression (%)=(Absorbance of test group with said material treated/Absorbance of control group with no material treated)×100 [Equation 1]
Collagenase expression was evaluated as a relative value, in consideration that the value of control group with no material treated is 100.

elastase = assay: Inhibition of elastase expression in human fibroblasts (ELISA kit); type: cell-based; details: 10^−4M, 24 hours, serum-free medium, relative to control group = 100
Procedure: as §2, with “elastase” for “collagenase”, “Elastase” for “Collagenase”, “2.” for “1.”, “2]” for “1]”
Elastase expression was evaluated as a relative value, in consideration that the value of control group with no material treated is 100.

white guinea pigs = assay: Phototoxicity test (UVA irradiation); details: for Evaluation (phototoxicity): 1%(w/v) solution, UVA 15 J/cm^2; for Phototoxic index: 50 μl of 1%(w/v) solution, UVA 320~380 nm 15 J/cm^2, observed 24, 48 and 72 hours
Procedure: Test was performed for twenty-five (25) of white guinea pigs whose backs were depilated and fixed. On both sides of the back, six(6) sites of 2 cm×2 cm, three(3) per side were sectioned. Right sites were compared as controls with no irradiation (UV non-irradiation sites) and left sites were irradiated (UV irradiation sites).
30 Minutes later, right sites were shielded with aluminum foil and UVA(320˜380 nm) was irradiated at a distance of about 10 cm therefrom using Waldmann to the final energy of 15 J/cm^2. After 24, 48 and 72 hours elapsed, skin response of guinea pig was observed. […] Evaluation was estimated for each elapsed time, i.e. 24, 48 and 72 hours and maximum scores were selected, to calculate irritation index by the following equation 3. Then, phototoxic index was calculated by the following equation 4. Irritation index=(ΣMaximum of erythema+ΣMaximum of edema)/Number of animals [Equation 3] Phototoxic index=(Irritation index of UV irradiation site)−(Irritation index of UV non-irradiation site) Equation 4]

rabbits = assay: Primary skin irritation test on animals (Draize P.I.I.); details: depilated back; for P.I.I. (Primary Irritation Index): 0.5 ml of 1% solution in 1,3-butylene glycol:ethanol 7:3, observed 24 or 72 hours later; for Evaluation (skin irritation): 1% solution, according to Draize's P.I.I.

Row | SMILES | Luciferase activity RARα (RARα) | Luciferase activity RARγ (RARγ) | Collagen biosynthesis (%) (procollagen type I) | Collagenase expression (%) (collagenase) | Elastase expression (%) (elastase) | Evaluation (phototoxicity) (white guinea pigs) | Phototoxic index (white guinea pigs) | P.I.I. (Primary Irritation Index) (rabbits) | Evaluation (skin irritation) (rabbits)
1 | CCCCc1ccc(C(=O)N(C)c2ccc(C(=O)NO)cc2)cc1 [Example 18, N-[4-(N-hydroxycarbamoyl)phenyl]-N-methyl-[4-butylphenyl]carboxyamide] | 12900 | 11400 | 130% | 78% | 79% | No phototoxicity (lower value than 0.5, criterion value to be estimated as no phototoxicity) | 0 | 0.321 | No irritation
2 | Cc1ccc(C(=O)N(C)c2ccc(C(=O)NO)cc2)cc1C [Example 20, N-[4-(N-hydroxcarbamoly)phenyl]-N-methyl-[3,4-dimethylphenyl]carboxyamide] | 12200 | 12300 | 122% | 68% | 78% | No phototoxicity (lower value than 0.5, criterion value to be estimated as no phototoxicity) | 0 | 0.421 | No irritation
3 | CN(C(=O)C12CC3CC(CC(C3)C1)C2)c1ccc(C(=O)NO)cc1 [Example 21, N-[4-(N-hydroxycarbamoyl)phenyl]adamantyl-N-methylcarboxyamide] | 12500 | 11200 | 118% | 69% | 78% | No phototoxicity (lower value than 0.5, criterion value to be estimated as no phototoxicity) | 0 | 0.345 | No irritation
4 | CN(O)C(=O)c1ccc(N(C)C(=O)C23CC4CC(CC(C4)C2)C3)cc1 [Example 22, adamantyl-N-[4-(N-hydroxy-N-methylcarbamoyl)phenyl]-N-methylcarboxyamide] | 12100 | 12400 | 120% | 77% | 70% | No phototoxicity (lower value than 0.5, criterion value to be estimated as no phototoxicity) | 0 | 0.350 | No irritation
5 | Cc1ccc(C(=O)Nc2ccc(CC(=O)NO)cc2)cc1 [Example 24, N-[4-(N-hydroxycarbamoylmethyl)phenyl][4-methylphenyl]carboxyamide] | 12100 | 11210 | 121% | 76% | 82% | No phototoxicity (lower value than 0.5, criterion value to be estimated as no phototoxicity) | 0 | 0.321 | No irritation
6 | Cc1cccc(C(=O)Nc2ccc(CC(=O)NO)cc2)c1 [Example 25, N-[4-(N-hydroxycarbamoylmethyl)phenyl][3-methylphenyl]carboxyamide] | 13200 | 12100 | 120% | 70% | 80% | No phototoxicity (lower value than 0.5, criterion value to be estimated as no phototoxicity) | 0 | 0.423 | No irritation
